In BindingDB's records for doi:10.7270/Q24J0CNF (Chevron Chemical, 1990):

Target: Glutamine synthetase (Homo sapiens, UniProt P15104)
Test: Enzyme Assay
Settings: pH 7
Procedure: The enzyme was assayed at pH 7.0 using the pyruvate kinase/lactate dehydroenase coupling system.

Chain of Glutamine synthetase (P15104 whole entry): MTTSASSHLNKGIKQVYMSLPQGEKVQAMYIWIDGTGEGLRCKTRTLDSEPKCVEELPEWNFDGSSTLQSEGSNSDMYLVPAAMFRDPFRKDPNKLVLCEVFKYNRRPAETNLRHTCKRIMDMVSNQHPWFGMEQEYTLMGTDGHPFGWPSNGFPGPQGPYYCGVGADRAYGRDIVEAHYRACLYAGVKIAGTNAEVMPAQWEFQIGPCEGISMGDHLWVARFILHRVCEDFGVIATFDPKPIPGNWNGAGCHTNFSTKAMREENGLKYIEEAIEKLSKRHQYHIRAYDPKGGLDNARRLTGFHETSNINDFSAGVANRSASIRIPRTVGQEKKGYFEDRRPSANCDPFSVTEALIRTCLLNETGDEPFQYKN

Compound | Ki [nM]
CP(=O)(O)CCC(N)C(=O)O (stereo not drawn) [Phosphinothricin analog, 1 (L Isomer)] | 0.22
CC(CC(N)C(=O)O)P(C)(=O)O (configuration not stated) [Phosphinothricin analog, 2 (D,L mixture)] | 140
